How the values were obtained:
[1] = system: focal cerebral ischemic injury in rats; experiment: Focal cerebral ischemic injury in rats (transient MCA occlusion, TTC-stained infarct); type: in vivo, Sprague-Dawley rats; details: 2-h MCA occlusion/22-h reperfusion, oral, two times at 5 min and 4 h, cilostazol 20 mg/kg, probucol 30 mg/kg, vs vehicle, FIG. 4
Description: Male Sprague-Dawley rats weighing 280-320 g were anesthetized with pentobarbital sodium (20 mg/kg, i.p.), and placed on a heating pad (Homeothermic Blanket System, Harvard Apparatus, South Natick, Mass.) to maintain a constant rectal temperature (37±0.5° C.). Systemic arterial blood pressure, arterial blood gas and pH were measured before, during ischemia and after 22-h reperfusion. Focal cerebral ischemia was induced by transient occlusion of the left middle cerebral artery (MCA) as previously described (Stroke 1989; 20:84-91). Surgical nylon suture thread (3-0 in size) with the round tip was advanced from the external carotid artery into the lumen of the internal carotid artery until blocking the flow of the MCA. Two hours after MCA occlusion, reperfusion was allowed by withdrawal of the suture thread until the tip cleared the internal carotid artery. […] The TTC-stained brain slices were photographed using CCD video camera and the size of an infarct was calculated with image analysis system (Image-Pro Plus, Media Cybernetics, Maryland) and expressed as the percentage of infarcted tissue in reference to the ipsilateral hemisphere. […] Data were expressed as mean±S.E.M. The comparison of the results of hemispheric infarct areas between groups is analyzed by repeated measures analysis of variance followed by Tukey's multiple comparison tests as a post hoc comparison. […]

[2] = system: atherosclerotic lesion in low-density lipoprotein receptor-knockout mice; experiment: Atherosclerosis in low-density lipoprotein receptor-knockout mice fed high cholesterol; type: in vivo; details: LDLR-KO mice; for area of atherosclerotic lesion (ratio of Sudan IV stained area to whole aorta), mean±SD: high-fat diet 8 weeks, control 10.1±4.7%; for inhibition of atherosclerotic lesion (in words): Cilostazol 0.3%, Probucol 0.1 and 0.5%, alone or combined, FIG. 2 and FIG. 3
Description: Low-density lipoprotein receptor-knockout (LDLR-KO) mice (J. Clin. Invest. 1993; 92: 883-893) (male, 9 weeks old, which was prepared by and kept in Otsuka Pharmaceutical Co, Ltd.) were used. The animals were treated by grouping in the following six groups. Prior to start the experiment, the body weight of the animals and total cholesterol were measured, and based on both data, the animals were divided into six groups in random by stratified randomization method (SAS Software, R8.1). The doses of Probucol and Cilostazol were determined based on the reports (Horm. Metab. Res. 2001; 33: 472-479, and J. Pharmacol. Exp. Ther. 2005; 313: 502-509), respectively. In control group, mice were administered with a high-fat diet [i.e. a conventional feed (CRF-1, manufactured by Oriental Yeast Industries Co., LTD.) supplemented with cholesterol (1.25%), sodium cholate (0.5%) and cacao butter (15%)] and in the test material-administered group, the mice were administered with the high-fat diet combined with Cilostazol (0.3%) and/or Probucol (0.1% or 0.5%). The high-fat diet was administered to the LDLR-KO mice (since 9 weeks old) in order to induce atherosclerosis (in control group). In the test material-administration groups, the high-fat diet mixed with test material was administered to the mice (since 9 weeks old). The mice in both groups were dissected at eighth weeks after starting the administration of the diet. The atherosclerotic lesion was evaluated by picking up whole of the aorta under ether anesthesia, exposing the inner face of aorta and staining the fats with Sudan IV. The area of the atherosclerotic lesion (containing fats/lipids) in whole of the aorta was counted by image analysis of stained area and whole area of the aorta. 1) In order to confirm the synergistic effects of the combination of Cilostazol and Probucol, two-way ANOVA was carried out between the control group and the Cilostazol-administered group as well as between the Probucol-administered group and two agents-administered group, and thereby the interaction was observed. 2) The effects in Cilostazol- and Probucol-administered group were compared with the effects in control group by Dunnett's test. Moreover, the effects in Cilostazol- and Probucol-administered group were compared with the effects in Cilostazol+Probucol-administered group by Dunnett's test. All tests were done by two-sided test with significant level of 5%, by means of SAS Software (SAS Institute Japan, R8.1). The area of atherosclerotic lesion was calculated as the ratio (%) of the area stained by Sudan IV to the area of whole aorta. The mean values±standard deviation were 10.1±4.7% in Control group, 6.6±2.6% in Cilostazol-administered group, 6.2±2.6% in 0.1% Probucol-administered group, 4.7±1.2% in 0.5% Probucol-administered group, 3.8±1.2% in Cilostazol+0.1% Probucol-administered group, and 2.9±1.5% in Cilostazol+0.5% Probucol-administered group.

[3] = system: Otsuka Long-Evans Tokushima Fatty (OLETF) male rats; experiment: Urinary excretion of glucose and insulin resistance in OLETF rats on high-fat diet; type: in vivo; details: eleventh week; for urinary glucose, mean±SD: 0.3% Cilostazol and/or 0.5% Probucol in diet, control 186±171 mg/dl; for effect on plasma glucose: 0.3% Cilostazol or 0.5% Probucol in diet, control 162±16 mg/dl
Description: Otsuka Long-Evans Tokushima Fatty (OLETF) male rats (6 week olds) were divided randomly into the following four groups depending on the body weights by stratified randomized method (using SAS Software, R8.1): Immediately after the randomized grouping, high-fat diet (commercially available feed (CRF-1, manufactured by Oriental Yeast Industries Co., LTD.) supplemented with cholesterol (1.25%), sodium cholate (0.5%) and cacao butter (15%)) was administered to the mice in each group in order to promote the onset of renal disease. In the test-material administered groups, the high-fat diet combined with the test material was administered to each mouse immediately after grouping. In the eleventh week after initiation of feeding, the mice were bled from the tail vein without anesthetization, and the plasma glucose and insulin level in plasma were measured. Separately, the urine was taken, and the urinary glucose was measured. Glucose was measured by an enzymatic method using a commercially available kit for measuring glucose, and the insulin was measured by a commercially available ELISA kit. 1) In order to confirm the synergistic effects of the combination of Cilostazol and Probucol, two-way ANOVA was carried out between the control group and the Cilostazol-administered group as well as between the Probucol-administered group and two agents-administered group, and thereby the interaction was observed. 2) The effects in Cilostazol- and Probucol-administered group were compared with the effects in control group by Dunnett's test. Moreover, the effects in Cilostazol- and Probucol-administered group were compared with the effects in Cilostazol+Probucol-administered group by Dunnett's test. All tests were done by two-sided test with significant level of 5%, by means of SAS Software (SAS Institute Japan, R8.1). The data were shown by mean±SD (n).

Row | Compound | hemispheric cerebral infarct area (in words) [1] | area of atherosclerotic lesion (ratio of Sudan IV stained area to whole aorta), mean±SD ([2]; 0.3% Cilostazol in diet) [%] | inhibition of atherosclerotic lesion (in words) [2] | urinary glucose, mean±SD [3] [mg/dL] | effect on plasma glucose [3] | area of atherosclerotic lesion (ratio of Sudan IV stained area to whole aorta), mean±SD ([2]; 0.1% Probucol in diet) [%] | area of atherosclerotic lesion (ratio of Sudan IV stained area to whole aorta), mean±SD ([2]; 0.5% Probucol in diet) [%]
1 | O=C1CCc2cc(OCCCCc3nnnn3C3CCCCC3)ccc2N1 [Cilostazol, 6-[4-(1-cyclohexyl-1H-tetrazol-5-yl)butoxy]-3,4-dihydrocarbostyril] | marginally reduced | 6.6±2.6 | inhibited the atherosclerotic lesion significantly | 11 ± 2 | neither Cilostazol nor Probucol showed any effect |  | 
2 | CC(C)(Sc1cc(C(C)(C)C)c(O)c(C(C)(C)C)c1)Sc1cc(C(C)(C)C)c(O)c(C(C)(C)C)c1 [Probucol, 4,4′-isopropylidenedithiobis[2,6-di-tert-butylphenol]] | without effect |  | inhibited the atherosclerotic lesion significantly | 11 ± 3 | neither Cilostazol nor Probucol showed any effect | 6.2±2.6 | 4.7±1.2

Source: US8580818B2, “Combination drug containing probucol and a tetrazolylalkoxy-dihydrocarbostyril derivative with superoxide supressant effects” (Otsuka Pharmaceutical Co., Ltd., priority 2005, dated 2013)
